Laboratory results taken from PubChem BioAssay (NCI).
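Method: 48-hour compound exposure of cells in 96-well plates, five concentrations, linear interpolation of endpoints. Abbreviation: GI50, concentration required for 50% inhibition of growth. At the TGI there is no net growth.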

Each compound was assayed on MDA-MB-435 (assay: NCI tumour cell line growth inhibition, 48 h).

SMILES | TGI [µM]
COc1ccc(-c2cc(=O)c3c(OC)c(OC)c(OC)cc3o2)cc1 | > 100

Each compound was assayed on MOLT-4 leukemia (assay: NCI tumour cell line growth inhibition, 48 h).

SMILES | GI50 [nM] | TGI [µM]
C=CC(=O)N1CC2(CCN(c3nc(OC4CCN(CCCOC)CC4)nc4c(OCC(F)(F)F)c(-c5c(C)ccc6[nH]ncc56)c(C5CC5)cc34)CC2)C1 | 1670 | 6.06
FC(F)(F)c1cccc(Nc2nccc(-c3cnn4nc(-c5ccccc5)ccc34)n2)c1 | > 16500 | > 25
C=C1C(=O)O[C@H]2[C@H]1CC/C(COC(=O)c1ccc3ccccc3c1)=C\CC[C@@]1(C)O[C@@H]21 | 503 | 3.47
CC[CH2][Sn]([CH2]CC)([O]C(=O)c1cccnc1SC)[O][Sn]([CH2]CC)([CH2]CC)[O]C(=O)c1cccnc1SC | 149 | > 16.6
Oc1ccc(CN2CCC(N3CCCCC3)CC2)c2cccnc12 | 19900 | > 100
CC[C@@]1(O)C(=O)OCc2c1cc1n(c2=O)Cc2c-1nc1cc3c(cc1c2CCl)OCO3 | < 10 | < 0.038
CC1(C)OC2[C@@H](CNC(=O)NC(=O)NC(=O)CI)O[C@@H](n3cnc4c(NC(=O)Nc5ccccc5)ncnc43)[C@H]2O1 (stereo not given in full) | 1860 | 9.28
COc1cc(C2=C(c3ccccc3)COC2=O)cc(OC)c1OC | 4180 | > 100
COc1cc(C2NC(=O)c3ccccc3N2)ccc1OCCCCCOc1c(OC)cc(C2=NOC(c3cc(OC)c(OC)c(OC)c3)C2)cc1OC (stereo not given) | 570 | > 100
O=C1Nc2c(C(F)(F)F)cccc2[C@]1(c1ccc(O)cc1)c1ccc(OC(F)(F)F)cc1 | 5340 | 23.6
CS(=O)(=O)c1ccc([C@H]2O[C@@H](CO)C[C@]2(O)c2ccc(S(C)(=O)=O)cc2)cc1 | > 100000 | > 100
CC(=O)OC[C@]1(C)C=C2C(=O)[C@](C)(O)C3(CC3)C(C)=C2[C@H]1O | 62.9 | > 100
Oc1ccc(NCc2nc3ccccc3[nH]2)cc1 | > 100000 | > 100
O=C1c2cc(Cl)ccc2S(=O)(=O)c2c(NCCCNCCO)nc3ccccc3c21 | 1820 | 5.63
CC(C)(C)OC(=O)N1CCc2c(sc3ncnc(N/N=C/c4cccc5ccccc45)c23)C1 | 3250 | 16.9
CC[C@@H]1CN(C)[C@H]2Cc3c([nH]c4ccccc34)C(=O)C[C@H]1C2C(=O)OC (stereo not given in full) |  | > 100
CCN(CC)c1ccc(/C=C/c2ccc3cc(C)ccc3[n+]2CC)cc1 | 161 | 2.65
Cc1ccc2c(c1)[n+]([O-])c(N)n[n+]2[O-] |  | > 100
COC1/C=C\C=C(/C)C(=O)NC2=CC(=O)C(=O)C(=C2O)CC(C)CC(OC)C(O)C(C)/C=C(\C)C1OC(N)=O (stereo not given) |  | > 52.3
O=c1[nH]ncc(Br)c1Br | 2410 | 5.19
COc1ccc(-c2cc(=O)c3c(OC)c(OC)c(OC)cc3o2)cc1 |  | > 100

Each compound was assayed on OVCAR-4 ovarian (assay: NCI tumour cell line growth inhibition, 48 h).

SMILES | GI50 [nM] | TGI [µM]
C=CC(=O)N1CC2(CCN(c3nc(OC4CCN(CCCOC)CC4)nc4c(OCC(F)(F)F)c(-c5c(C)ccc6[nH]ncc56)c(C5CC5)cc34)CC2)C1 | 4540 | 18.5
FC(F)(F)c1cccc(Nc2nccc(-c3cnn4nc(-c5ccccc5)ccc34)n2)c1 | 5180 | 10.3
C=C1C(=O)O[C@H]2[C@H]1CC/C(COC(=O)c1ccc3ccccc3c1)=C\CC[C@@]1(C)O[C@@H]21 | 1520 | 3.32
CC[CH2][Sn]([CH2]CC)([O]C(=O)c1cccnc1SC)[O][Sn]([CH2]CC)([CH2]CC)[O]C(=O)c1cccnc1SC | 1030 | 2.34
Oc1ccc(CN2CCC(N3CCCCC3)CC2)c2cccnc12 | 24200 | > 100
CC[C@@]1(O)C(=O)OCc2c1cc1n(c2=O)Cc2c-1nc1cc3c(cc1c2CCl)OCO3 | 693 | 11.6
CC1(C)OC2[C@@H](CNC(=O)NC(=O)NC(=O)CI)O[C@@H](n3cnc4c(NC(=O)Nc5ccccc5)ncnc43)[C@H]2O1 (stereo not given in full) | 7160 | 21
COc1cc(C2=C(c3ccccc3)COC2=O)cc(OC)c1OC | 38900 | > 100
COc1cc(C2NC(=O)c3ccccc3N2)ccc1OCCCCCOc1c(OC)cc(C2=NOC(c3cc(OC)c(OC)c(OC)c3)C2)cc1OC (stereo not given) | 417 | > 100
O=C1Nc2c(C(F)(F)F)cccc2[C@]1(c1ccc(O)cc1)c1ccc(OC(F)(F)F)cc1 | 543 | 5.23
CS(=O)(=O)c1ccc([C@H]2O[C@@H](CO)C[C@]2(O)c2ccc(S(C)(=O)=O)cc2)cc1 | > 100000 | > 100
CC(=O)OC[C@]1(C)C=C2C(=O)[C@](C)(O)C3(CC3)C(C)=C2[C@H]1O | 94 | 0.649
Oc1ccc(NCc2nc3ccccc3[nH]2)cc1 | 28700 | > 100
O=C1c2cc(Cl)ccc2S(=O)(=O)c2c(NCCCNCCO)nc3ccccc3c21 | 985 | 2.18
CC(C)(C)OC(=O)N1CCc2c(sc3ncnc(N/N=C/c4cccc5ccccc45)c23)C1 | 3790 | 80.6
CC[C@@H]1CN(C)[C@H]2Cc3c([nH]c4ccccc34)C(=O)C[C@H]1C2C(=O)OC (stereo not given in full) |  | > 31.6
CCN(CC)c1ccc(/C=C/c2ccc3cc(C)ccc3[n+]2CC)cc1 | 46.8 | 12.1
Cc1ccc2c(c1)[n+]([O-])c(N)n[n+]2[O-] |  | > 100
COC1/C=C\C=C(/C)C(=O)NC2=CC(=O)C(=O)C(=C2O)CC(C)CC(OC)C(O)C(C)/C=C(\C)C1OC(N)=O (stereo not given) |  | 22.1
O=c1[nH]ncc(Br)c1Br | 1710 | 3.08
COc1ccc(-c2cc(=O)c3c(OC)c(OC)c(OC)cc3o2)cc1 |  | > 100

Each compound was assayed on SNB-19 CNS (assay: NCI tumour cell line growth inhibition, 48 h).

SMILES | GI50 [µM] | TGI [µM]
C=CC(=O)N1CC2(CCN(c3nc(OC4CCN(CCCOC)CC4)nc4c(OCC(F)(F)F)c(-c5c(C)ccc6[nH]ncc56)c(C5CC5)cc34)CC2)C1 | 6.89 | 20.1
FC(F)(F)c1cccc(Nc2nccc(-c3cnn4nc(-c5ccccc5)ccc34)n2)c1 | > 17.1 | > 25
C=C1C(=O)O[C@H]2[C@H]1CC/C(COC(=O)c1ccc3ccccc3c1)=C\CC[C@@]1(C)O[C@@H]21 | 1.36 | 2.75
CC[CH2][Sn]([CH2]CC)([O]C(=O)c1cccnc1SC)[O][Sn]([CH2]CC)([CH2]CC)[O]C(=O)c1cccnc1SC | 0.83 | 2.22
Oc1ccc(CN2CCC(N3CCCCC3)CC2)c2cccnc12 | 21.6 | > 100
CC[C@@]1(O)C(=O)OCc2c1cc1n(c2=O)Cc2c-1nc1cc3c(cc1c2CCl)OCO3 | < 0.018 | > 100
CC1(C)OC2[C@@H](CNC(=O)NC(=O)NC(=O)CI)O[C@@H](n3cnc4c(NC(=O)Nc5ccccc5)ncnc43)[C@H]2O1 (stereo not given in full) | 27.1 | > 50
COc1cc(C2=C(c3ccccc3)COC2=O)cc(OC)c1OC | 4.42 | > 100
COc1cc(C2NC(=O)c3ccccc3N2)ccc1OCCCCCOc1c(OC)cc(C2=NOC(c3cc(OC)c(OC)c(OC)c3)C2)cc1OC (stereo not given) | 16.6 | > 88.8
